Experimental data reported in the NIST ThermoML archive (doi:10.1016/j.jct.2012.08.023).
Numbers after ± are expanded uncertainties.

Experiment: mn = molality of the nth substance listed, in mol/kg
Conditions: 101.3 kPa, Liquid; for speed of sound: Single path-length method; for mass density: Vibrating tube method

## CCCCn1cc[n+](C)c1.[Br-] [1-butyl-3-methylimidazolium bromide] + O
288.15 K, m1 = 0.0915
  speed of sound: 1490.7 ± 1.4 m/s
  mass density: 996.409 ± 0.31 kg/m3
288.15 K, m1 = 0.0969
  speed of sound: 1489.1 ± 1.4 m/s
  mass density: 1001.56 ± 0.52 kg/m3
288.15 K, m1 = 0.1014
  speed of sound: 1490.9 ± 1.7 m/s
  mass density: 989.502 ± 0.78 kg/m3
288.15 K, m1 = 0.2656
  speed of sound: 1511.6 ± 1.7 m/s
  mass density: 1010.44 ± 0.81 kg/m3
288.15 K, m1 = 0.2803
  speed of sound: 1512.3 ± 1.4 m/s
  mass density: 1007.11 ± 0.32 kg/m3
288.15 K, m1 = 0.2869
  speed of sound: 1512.3 ± 1.4 m/s
  mass density: 1010.49 ± 0.54 kg/m3
298.15 K, m1 = 0.0915
  speed of sound: 1516.7 ± 1.4 m/s
  mass density: 996.531 ± 0.31 kg/m3
298.15 K, m1 = 0.0969
  speed of sound: 1517 ± 1.4 m/s
  mass density: 999.293 ± 0.52 kg/m3
298.15 K, m1 = 0.1014
  speed of sound: 1520.2 ± 1.7 m/s
  mass density: 997.101 ± 0.79 kg/m3
298.15 K, m1 = 0.2656
  speed of sound: 1536.2 ± 1.7 m/s
  mass density: 1007.45 ± 0.8 kg/m3
298.15 K, m1 = 0.2803
  speed of sound: 1536.8 ± 1.4 m/s
  mass density: 1005.82 ± 0.32 kg/m3
298.15 K, m1 = 0.2869
  speed of sound: 1536.8 ± 1.4 m/s
  mass density: 1005.51 ± 0.53 kg/m3
308.15 K, m1 = 0.0915
  speed of sound: 1535.5 ± 1.4 m/s
  mass density: 991.528 ± 0.31 kg/m3
308.15 K, m1 = 0.0969
  speed of sound: 1537.9 ± 1.4 m/s
  mass density: 996.365 ± 0.52 kg/m3
308.15 K, m1 = 0.1014
  speed of sound: 1540.2 ± 1.7 m/s
  mass density: 992.565 ± 0.78 kg/m3
308.15 K, m1 = 0.2656
  speed of sound: 1554.5 ± 1.7 m/s
  mass density: 1005.51 ± 0.8 kg/m3
308.15 K, m1 = 0.2803
  speed of sound: 1555.3 ± 1.4 m/s
  mass density: 1002.41 ± 0.32 kg/m3
308.15 K, m1 = 0.2869
  speed of sound: 1555.3 ± 1.4 m/s
  mass density: 1001.76 ± 0.52 kg/m3

## COCCOCCO [2-(2-methoxyethoxy)ethanol] + O
288.15 K, m1 = 0.1113
  speed of sound: 1477.1 ± 1.4 m/s
  mass density: 999.888 ± 0.52 kg/m3
288.15 K, m1 = 0.1346
  speed of sound: 1480.4 ± 1.4 m/s
  mass density: 1000.02 ± 0.52 kg/m3
288.15 K, m1 = 0.3285
  speed of sound: 1494.2 ± 1.4 m/s
  mass density: 1001.11 ± 0.52 kg/m3
288.15 K, m1 = 0.4005
  speed of sound: 1498.2 ± 1.4 m/s
  mass density: 1001.49 ± 0.52 kg/m3
288.15 K, m1 = 0.62
  speed of sound: 1516.3 ± 1.4 m/s
  mass density: 1002.6 ± 0.52 kg/m3
288.15 K, m1 = 0.7114
  speed of sound: 1523.8 ± 1.4 m/s
  mass density: 1003.02 ± 0.53 kg/m3
288.15 K, m1 = 0.9906
  speed of sound: 1539.6 ± 1.4 m/s
  mass density: 1004.26 ± 0.53 kg/m3
288.15 K, m1 = 1.052
  speed of sound: 1548 ± 1.5 m/s
  mass density: 1004.52 ± 0.53 kg/m3
298.15 K, m1 = 0.1113
  speed of sound: 1505.1 ± 1.4 m/s
  mass density: 997.716 ± 0.52 kg/m3
298.15 K, m1 = 0.1346
  speed of sound: 1508.5 ± 1.4 m/s
  mass density: 997.84 ± 0.52 kg/m3
298.15 K, m1 = 0.3285
  speed of sound: 1519.7 ± 1.4 m/s
  mass density: 998.835 ± 0.52 kg/m3
298.15 K, m1 = 0.4005
  speed of sound: 1523.4 ± 1.4 m/s
  mass density: 999.182 ± 0.52 kg/m3
298.15 K, m1 = 0.62
  speed of sound: 1537.8 ± 1.4 m/s
  mass density: 1000.22 ± 0.52 kg/m3
298.15 K, m1 = 0.7114
  speed of sound: 1544.5 ± 1.4 m/s
  mass density: 1000.62 ± 0.52 kg/m3
298.15 K, m1 = 0.9906
  speed of sound: 1556.8 ± 1.4 m/s
  mass density: 1001.81 ± 0.52 kg/m3
298.15 K, m1 = 1.052
  speed of sound: 1497.7 ± 1.4 m/s
  mass density: 1002.03 ± 0.52 kg/m3
308.15 K, m1 = 0.1113
  speed of sound: 1526.8 ± 1.4 m/s
  mass density: 994.536 ± 0.52 kg/m3
308.15 K, m1 = 0.1346
  speed of sound: 1529.1 ± 1.4 m/s
  mass density: 994.655 ± 0.52 kg/m3
308.15 K, m1 = 0.3285
  speed of sound: 1538.8 ± 1.4 m/s
  mass density: 995.615 ± 0.52 kg/m3
308.15 K, m1 = 0.4005
  speed of sound: 1541.4 ± 1.4 m/s
  mass density: 995.953 ± 0.52 kg/m3
308.15 K, m1 = 0.62
  speed of sound: 1553.6 ± 1.4 m/s
  mass density: 996.952 ± 0.52 kg/m3
308.15 K, m1 = 0.7114
  speed of sound: 1558.8 ± 1.4 m/s
  mass density: 997.341 ± 0.52 kg/m3
308.15 K, m1 = 0.9906
  speed of sound: 1569.1 ± 1.4 m/s
  mass density: 998.476 ± 0.53 kg/m3
308.15 K, m1 = 1.052
  speed of sound: 1574.7 ± 1.6 m/s
  mass density: 993.955 ± 0.52 kg/m3

## COCCOCCOCCO [2-[2-(2-methoxyethoxy)ethoxy]ethanol] + O
288.15 K, m1 = 0.0992
  speed of sound: 1476.9 ± 1.7 m/s
  mass density: 1000.76 ± 0.79 kg/m3
288.15 K, m1 = 0.2191
  speed of sound: 1490.1 ± 1.7 m/s
  mass density: 1002.54 ± 0.79 kg/m3
288.15 K, m1 = 0.4289
  speed of sound: 1510.7 ± 1.7 m/s
  mass density: 1005.5 ± 0.8 kg/m3
288.15 K, m1 = 0.5088
  speed of sound: 1517.7 ± 1.7 m/s
  mass density: 1006.57 ± 0.8 kg/m3
288.15 K, m1 = 0.5825
  speed of sound: 1525 ± 1.7 m/s
  mass density: 1007.53 ± 0.8 kg/m3
288.15 K, m1 = 0.7077
  speed of sound: 1537.2 ± 1.7 m/s
  mass density: 1009.12 ± 0.81 kg/m3
288.15 K, m1 = 0.7956
  speed of sound: 1543.9 ± 1.7 m/s
  mass density: 1010.2 ± 0.81 kg/m3
288.15 K, m1 = 0.9789
  speed of sound: 1467.3 ± 2 m/s
  mass density: 1012.35 ± 0.81 kg/m3
298.15 K, m1 = 0.0992
  speed of sound: 1505.2 ± 1.7 m/s
  mass density: 998.595 ± 0.79 kg/m3
298.15 K, m1 = 0.2191
  speed of sound: 1516.8 ± 1.7 m/s
  mass density: 1000.32 ± 0.79 kg/m3
298.15 K, m1 = 0.4289
  speed of sound: 1533 ± 1.7 m/s
  mass density: 1003.2 ± 0.79 kg/m3
298.15 K, m1 = 0.5088
  speed of sound: 1539.4 ± 1.7 m/s
  mass density: 1004.24 ± 0.8 kg/m3
298.15 K, m1 = 0.5825
  speed of sound: 1544.9 ± 1.7 m/s
  mass density: 1005.17 ± 0.8 kg/m3
298.15 K, m1 = 0.7077
  speed of sound: 1555.8 ± 1.7 m/s
  mass density: 1006.71 ± 0.8 kg/m3
298.15 K, m1 = 0.7956
  speed of sound: 1560.4 ± 1.7 m/s
  mass density: 1007.75 ± 0.8 kg/m3
298.15 K, m1 = 0.9789
  speed of sound: 1570.5 ± 1.8 m/s
  mass density: 1009.85 ± 0.81 kg/m3
308.15 K, m1 = 0.0992
  speed of sound: 1526.8 ± 1.7 m/s
  mass density: 995.371 ± 0.78 kg/m3
308.15 K, m1 = 0.2191
  speed of sound: 1535.9 ± 1.7 m/s
  mass density: 997.022 ± 0.79 kg/m3
308.15 K, m1 = 0.4289
  speed of sound: 1549.8 ± 1.7 m/s
  mass density: 999.755 ± 0.79 kg/m3
308.15 K, m1 = 0.5088
  speed of sound: 1554.7 ± 1.7 m/s
  mass density: 1000.75 ± 0.79 kg/m3
308.15 K, m1 = 0.5825
  speed of sound: 1559.5 ± 1.7 m/s
  mass density: 1001.64 ± 0.79 kg/m3
308.15 K, m1 = 0.7077
  speed of sound: 1568.3 ± 1.7 m/s
  mass density: 1003.1 ± 0.79 kg/m3
308.15 K, m1 = 0.7956
  speed of sound: 1572.2 ± 1.7 m/s
  mass density: 1004.09 ± 0.8 kg/m3
308.15 K, m1 = 0.9789
  speed of sound: 1580 ± 1.7 m/s
  mass density: 1006.07 ± 0.8 kg/m3

## COCCO [2-methoxyethan-1-ol] + O
288.15 K, m1 = 0.1766
  speed of sound: 1475.3 ± 1.4 m/s
  mass density: 999.359 ± 0.31 kg/m3
288.15 K, m1 = 0.3377
  speed of sound: 1487.3 ± 1.4 m/s
  mass density: 999.461 ± 0.31 kg/m3
288.15 K, m1 = 0.3987
  speed of sound: 1486.9 ± 1.4 m/s
  mass density: 999.495 ± 0.31 kg/m3
288.15 K, m1 = 0.5117
  speed of sound: 1492.9 ± 1.4 m/s
  mass density: 999.548 ± 0.31 kg/m3
288.15 K, m1 = 0.6355
  speed of sound: 1498.1 ± 1.4 m/s
  mass density: 999.593 ± 0.31 kg/m3
288.15 K, m1 = 0.7947
  speed of sound: 1506.8 ± 1.4 m/s
  mass density: 999.638 ± 0.31 kg/m3
288.15 K, m1 = 1.012
  speed of sound: 1518.1 ± 1.4 m/s
  mass density: 999.666 ± 0.31 kg/m3
298.15 K, m1 = 0.1766
  speed of sound: 1504.9 ± 1.4 m/s
  mass density: 997.221 ± 0.31 kg/m3
298.15 K, m1 = 0.3377
  speed of sound: 1511.2 ± 1.4 m/s
  mass density: 997.304 ± 0.31 kg/m3
298.15 K, m1 = 0.3987
  speed of sound: 1513.8 ± 1.4 m/s
  mass density: 997.331 ± 0.31 kg/m3
298.15 K, m1 = 0.5117
  speed of sound: 1518 ± 1.4 m/s
  mass density: 997.377 ± 0.31 kg/m3
298.15 K, m1 = 0.6355
  speed of sound: 1522.9 ± 1.4 m/s
  mass density: 997.421 ± 0.31 kg/m3
298.15 K, m1 = 0.7947
  speed of sound: 1529.3 ± 1.4 m/s
  mass density: 997.462 ± 0.31 kg/m3
298.15 K, m1 = 1.012
  speed of sound: 1539.1 ± 1.4 m/s
  mass density: 997.507 ± 0.31 kg/m3
308.15 K, m1 = 0.1766
  speed of sound: 1526.1 ± 1.4 m/s
  mass density: 994.075 ± 0.31 kg/m3
308.15 K, m1 = 0.3377
  speed of sound: 1531.6 ± 1.4 m/s
  mass density: 994.169 ± 0.31 kg/m3
308.15 K, m1 = 0.3987
  speed of sound: 1533.1 ± 1.4 m/s
  mass density: 994.202 ± 0.31 kg/m3
308.15 K, m1 = 0.5117
  speed of sound: 1537 ± 1.4 m/s
  mass density: 994.256 ± 0.31 kg/m3
308.15 K, m1 = 0.6355
  speed of sound: 1540.5 ± 1.4 m/s
  mass density: 994.305 ± 0.31 kg/m3
308.15 K, m1 = 0.7947
  speed of sound: 1546 ± 1.4 m/s
  mass density: 994.361 ± 0.31 kg/m3
308.15 K, m1 = 1.012
  speed of sound: 1553.7 ± 1.4 m/s
  mass density: 994.412 ± 0.31 kg/m3
